Assay results: USRE30241E, “Esters of 3-(hydroxy or hydroxymethyl)-4-hydroxyphenyl aminomethyl ketones” (Sterling Drug Inc., priority 1970, dated 1980)
Where two headings read alike, the source gives them in different places.

What was measured:
heart rate = test: Cardiovascular studies: effect on the heart rate in the anesthetized dog; type: in vivo
Description: The effect of a rapid intravenous injection on the heart rate the heart rate was conducted in anesthetized dogs under normal respiration. A few open-chest dogs were also tested. Increase in heart rate was measured by using an electrocardiograph attached to the dog. Readings were taken every 0.5-1 minute for the first 10 minutes and every 2-5 minutes thereafter until recovery. In some cases, several doses and more than one compound were tested alternately in the same dog. The blood pressure effect was simultaneously recorded.

[1] = test system: carbachol- or histamine-induced bronchoconstriction; test: Bronchodilator Test Method I, anesthetized dog, intraduodenal activity; type: in vivo; conditions: Canis lupus familiaris, read-out: Bronchodilation; for inhibition in vivo at 0.025 mg/kg: 25 mcg/kg (salt) intraduodenal; for inhibition in vivo at 0.05 mg/kg: 50 mcg/kg (salt) intraduodenal; for inhibition in vivo at 0.068 mg/kg: 68 mcg/kg (salt) intraduodenal; for inhibition in vivo at 0.136 mg/kg: 136 mcg/kg (salt) intraduodenal
Description: Male and female dogs weighing 9-18 kg. each were anesthetized with pentobarbital sodium (30 mg./kg. i.v.). Each animal, with thorax opened at the midsternum, was maintained under artificial ventilation using a constant volume pump (250 ml./stroke; 10 to 12 strokes per minute) attached to the tracheal cannula. The flow of air was controlled by a glass or plastic valve which closed and opened respectively on inflow and outflow of the air to and from the tracheal cannula. Bronchoconstriction and/or bronchodilatation were measured from changes in the basal airway pressure reflected by a transducer attached to the sidearm of the cannula relayed to a polygraph.
Control bronchoconstrictions were induced by intravenous injections of carbachol (choline chloride carbamate) in doses ranging from 4 to 6 micrograms per kilogram or histamine diphosphate in doses ranging from 35 to 45 micrograms per kilogram. In the majority of test animals, the above doses of constrictor agents produced a 100-200 percent increase in the normal airway pressure or amplitude.
Injections were repeated at 20-30 minutes.
In intraduodenal studies, in the dog prepared for bronchodilation measurements, the duodenal segment of the small intestine was made easily accessible through a small mid-line incision in the abdomen. The test solution was injected into the duodenum using a fine needle. Commencing 5 minutes after medication, the degree and duration of bronchodilation were tested by injecting a control dose of carbachol or histamine at intervals of 30-60 minutes until the recovery or near-recovery was apparent. In some dogs showing an early recovery, a reference drug was also tested in the same dog 1.5-2 hours after the first medicine.

[2] = test system: carbachol- or histamine-induced bronchoconstriction; test: Bronchodilator Test Method I, anesthetized dog, intravenous activity; type: in vivo; conditions: Canis lupus familiaris, read-out: Bronchodilatation; for inhibition in vivo at 0.005 mg/kg: 5 mcg/kg i.v.; for inhibition in vivo at 0.02 mg/kg: 20 mcg/kg i.v.; for inhibition in vivo at 0.08 mg/kg: 80 mcg/kg i.v.; for inhibition in vivo at 0.068 mg/kg: 68 mcg/kg i.v.; for inhibition in vivo at 0.137 mg/kg: 137 mcg/kg i.v.; for inhibition in vivo at 0.274 mg/kg: 274 mcg/kg i.v.; for inhibition in vivo at 0.0013 mg/kg: 1.3 mcg/kg i.v.; for inhibition in vivo at 0.0065 mg/kg: 6.5 mcg/kg i.v.; for inhibition in vivo at 0.0325 mg/kg: 32.5 mcg/kg i.v.
In short: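 Pentobarbital-anesthetized (30 mg/kg i.v.), open-chest, artificially ventilated dogs were given i.v. carbachol (4-6 µg/kg) or histamine diphosphate (35-45 µg/kg). Test compound was given i.v. mixed with, after, or 1-10 min before the constrictor.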

[3] = test system: guinea pig bronchioles constricted by carbachol; test: Bronchodilator Test Method II, in vitro perfused guinea pig lung
Description: In this method bronchodilator activity in vitro was determined by testing the effect of graded doses of the test compounds on guinea pig bronchioles constricted by carbachol, using the technique reported by Sollman and von Oettingen, Proc. Soc, Exp. Biol. Med., 25,692 (1928) as modified by Tainter, Pedden, and James, J. Pharm. Exp. Ther., 51, 371 (1934) and by Luduena, von Euler, Tullar, and Lands, Arch. intern. Pharmacol., III, 392 (1957).

CC(C)(C)NCC(O)c1ccc(OC(=O)C(C)(C)C)c(COC(=O)C(C)(C)C)c1 (stereo not drawn) [Example 135, 3-(pivalyloxymethyl)-4-(pivaloxy)-alpha-(tert-butylaminomethyl)benzyl alcohol methanesulfonate]
Mean Maximal Increase in the Heart Rate (heart rate; 0.25 mcg/kg (salt) i.v.): 5 Beats/Minute | Mean Maximal Increase in the Heart Rate (heart rate; 1 mcg/kg (salt) i.v.): 10 Beats/Minute | Mean Maximal Increase in the Heart Rate (heart rate; 8 mcg/kg (salt) i.v.): 17 Beats/Minute | inhibition in vivo at 0.025 mg/kg ([1]; 5 min, 5 min): 18% | inhibition in vivo at 0.05 mg/kg ([1]; 5 min, 5 min): 31% | inhibition in vivo at 0.05 mg/kg ([1]; 0.5 h, 30 min): 56% | inhibition in vivo at 0.025 mg/kg ([1]; 1 h, 60 min): 56% | inhibition in vivo at 0.05 mg/kg ([1]; 1 h, 60 min): 74% | inhibition in vivo at 0.025 mg/kg ([1]; 2 h, 120 min): 55% | inhibition in vivo at 0.05 mg/kg ([1]; 2 h, 120 min): 73% | inhibition in vivo at 0.025 mg/kg ([1]; 3 h, 180 min): 45% | inhibition in vivo at 0.05 mg/kg ([1]; 3 h, 180 min): 64% | inhibition in vivo at 0.025 mg/kg ([1]; 4 h, 240 min): 34% | inhibition in vivo at 0.05 mg/kg ([1]; 4 h, 240 min): 51% | inhibition in vivo at 0.025 mg/kg ([1]; 5 h, 300 min): 27% | inhibition in vivo at 0.05 mg/kg ([1]; 5 h, 300 min): 37% | inhibition in vivo at 0.05 mg/kg ([1]; 6 h, after 6 hrs.): 36% | inhibition in vivo at 0.005 mg/kg ([2]; 5 min, 5 min): 18% | inhibition in vivo at 0.02 mg/kg ([2]; 5 min, 5 min): 30% | inhibition in vivo at 0.08 mg/kg ([2]; 5 min, 5 min): 38% | inhibition in vivo at 0.005 mg/kg ([2]; 0.5 h, 30 min): 32% | inhibition in vivo at 0.02 mg/kg ([2]; 0.5 h, 30 min): 49% | inhibition in vivo at 0.08 mg/kg ([2]; 0.5 h, 30 min): 64% | inhibition in vivo at 0.005 mg/kg ([2]; 1 h, 60 min): 36% | inhibition in vivo at 0.02 mg/kg ([2]; 1 h, 60 min): 50% | inhibition in vivo at 0.08 mg/kg ([2]; 1 h, 60 min): 62% | inhibition in vivo at 0.005 mg/kg ([2]; 2 h, 120 min): 26% | inhibition in vivo at 0.02 mg/kg ([2]; 2 h, 120 min): 56% | inhibition in vivo at 0.08 mg/kg ([2]; 2 h, 120 min): 66% | inhibition in vivo at 0.02 mg/kg ([2]; 3 h, 180 min): 50% | inhibition in vivo at 0.08 mg/kg ([2]; 3 h, 180 min): 62% | inhibition in vivo at 0.02 mg/kg ([2]; 4 h, 240 min): 45% | inhibition in vivo at 0.08 mg/kg ([2]; 4 h, 240 min): 56% | inhibition in vivo at 0.02 mg/kg ([2]; 5 h, 300 min): 36% | inhibition in vivo at 0.08 mg/kg ([2]; 5 h, 300 min): 49%

Cc1cccc(C(=O)Oc2ccc(C(O)CNC(C)(C)C)cc2OC(=O)c2cccc(C)c2)c1 (stereo not drawn) [Example 112, 3,4-bis(m-toluyloxy)-alpha-(tert-butylaminomethyl)benzyl alcohol]
ED50 ([3]; carbachol (Doryl) 1:5 million): 4.4 µg (base) | Duration, Mean ([3]; dose 10 mcg (base)): 104.1 ± 34.9 min | inhibition in vivo at 0.068 mg/kg ([1]; 5 min, 5 min): 50% | inhibition in vivo at 0.136 mg/kg ([1]; 5 min, 5 min): 42% | inhibition in vivo at 0.068 mg/kg ([1]; 10 min, 10 min): 0% | inhibition in vivo at 0.136 mg/kg ([1]; 10 min, 10 min): 59% | inhibition in vivo at 0.136 mg/kg ([1]; 0.5 h, 30 min): 67% | inhibition in vivo at 0.136 mg/kg ([1]; 1 h, 60 min): 53% | inhibition in vivo at 0.136 mg/kg ([1]; 2 h, 120 min): 0% | inhibition in vivo at 0.068 mg/kg ([2]; 5 min, 5 min): 38% | inhibition in vivo at 0.137 mg/kg ([2]; 5 min, 5 min): 80% | inhibition in vivo at 0.274 mg/kg ([2]; 5 min, 5 min): 80% | inhibition in vivo at 0.068 mg/kg ([2]; 0.5 h, 30 min): 43% | inhibition in vivo at 0.137 mg/kg ([2]; 0.5 h, 30 min): 60% | inhibition in vivo at 0.274 mg/kg ([2]; 0.5 h, 30 min): 74% | inhibition in vivo at 0.068 mg/kg ([2]; 1 h, 60 min): 27% | inhibition in vivo at 0.137 mg/kg ([2]; 1 h, 60 min): 50% | inhibition in vivo at 0.274 mg/kg ([2]; 1 h, 60 min): 57% | inhibition in vivo at 0.137 mg/kg ([2]; 2 h, 120 min): 37% | inhibition in vivo at 0.274 mg/kg ([2]; 2 h, 120 min): 54% | inhibition in vivo at 0.137 mg/kg ([2]; 3 h, 180 min): 8% | inhibition in vivo at 0.274 mg/kg ([2]; 3 h, 180 min): 33% | inhibition in vivo at 0.274 mg/kg ([2]; 4 h, 240 min): 38% | inhibition in vivo at 0.274 mg/kg ([2]; 4.5 h, 270 min): 25%

CC(=O)Oc1ccc(C(O)CNC(C)(C)C)cc1OC(=O)C12CC3CC(CC(C3)C1)C2 (stereo not drawn) [Example 148, 3-(1-adamantanecarbonyloxy)-4-acetoxy-alpha-(tert-butylaminomethyl)benzyl alcohol methanesulfonate]
Mean Maximal Increase in the Heart Rate (heart rate; 6.5 mcg/kg (salt) i.v.): 32 Beats/Minute | Mean Maximal Increase in the Heart Rate (heart rate; 32.5 mcg/kg (salt) i.v.): 58 Beats/Minute | inhibition in vivo at 0.0013 mg/kg ([2]; 5 min, 5 min): 21% | inhibition in vivo at 0.0065 mg/kg ([2]; 5 min, 5 min): 47% | inhibition in vivo at 0.0325 mg/kg ([2]; 5 min, 5 min): 95% | inhibition in vivo at 0.0013 mg/kg ([2]; 0.5 h, 30 min): 1% | inhibition in vivo at 0.0065 mg/kg ([2]; 0.5 h, 30 min): 30% | inhibition in vivo at 0.0325 mg/kg ([2]; 0.5 h, 30 min): 66% | inhibition in vivo at 0.0013 mg/kg ([2]; 1 h, 60 min): 10% | inhibition in vivo at 0.0065 mg/kg ([2]; 1 h, 60 min): 23% | inhibition in vivo at 0.0325 mg/kg ([2]; 1 h, 60 min): 54% | inhibition in vivo at 0.0013 mg/kg ([2]; 2 h, 120 min): 16% | inhibition in vivo at 0.0065 mg/kg ([2]; 2 h, 120 min): 15% | inhibition in vivo at 0.0325 mg/kg ([2]; 2 h, 120 min): 39% | inhibition in vivo at 0.0065 mg/kg ([2]; 3 h, 180 min): 13% | inhibition in vivo at 0.0325 mg/kg ([2]; 3 h, 180 min): 28% | inhibition in vivo at 0.0325 mg/kg ([2]; 4 h, 240 min): 14%
